# Measurements: PMC10778198, “First-in-Human Dose-Escalation Study of the Novel Oral Depsipeptide Class I-Targeting HDAC Inhibitor Bocodepsin (OKI-179) in Patients with Advanced Solid Tumors” (Cancers, 2023)
# Tested on: patients with advanced solid tumors
# Assay: phase I dose escalation: safety, DLT, MTD, RP2D (CTCAE v. 5)
# Assay type: in vivo
# Description: Subsequent dosing cohorts were enrolled using a standard 3 + 3 design.
# If any patient in any cohort of three patients developed a DLT during cycle 1, an additional three patients were recruited to expand the cohort to up to six evaluable patients. If two or more patients in any expanded cohort developed a DLT, this dose was considered non-tolerated, and dose escalation was discontinued. The MTD was defined as the highest dose level for which no more than one of six patients experienced a DLT.
# Patients were continuously evaluated for adverse events throughout the study using the Common Terminology Criteria of Adverse Events (CTCAE v. 5). The patients underwent a clinical history and physical examination, an ECOG PS, a complete blood count (CBCs), chemistry, coagulation studies, urinalysis, a serum pregnancy test (as applicable), a triplicate ECG, an ophthalmology examination, and baseline tumor assessment at screening. During cycle 1, weekly history and physical examination, CBC, chemistry, coagulation parameters, urinalysis, and triplicate ECGs were performed; in subsequent cycles, weekly labs were limited to a CBC. Repeat ophthalmology examinations were performed at cycle 3, day 1, and at the end of treatment. Repeat tumor assessment was performed every 2 cycles (6 weeks) in accordance with RECIST 1.1.
# [1] = All 4:3 Patients (n = 20), All Grades
# [2] = All Continuous Patients (N=8), All grades
# [3] = All Continuous Patients (N=8), G1
# [4] = All Continuous Patients (N=8), G2
# [5] = All Continuous Patients (N=8), G3
structure (smiles),measurement,setting,value
"CC(C)[C@H](N)C(=O)SCC/C=C/[C@@H]1CC(=O)NCc2nc(cs2)C(=O)NC(C)(C)C(=O)N[C@@H](C(C)C)C(=O)O1 [OKI-179, Bocodepsin]",TEAE: Platelet count decreased,"5:2, 300 mg (N=6), G2",0 N (%)
same,TEAE: Pneumonitis,"5:2, 300 mg (N=6), G2",1 (17) N (%)
same,TEAE: Pneumothorax,"5:2, 300 mg (N=6), G2",0 N (%)
same,TEAE: Vomiting,"5:2, 300 mg (N=6), G2",1 (17) N (%)
same,TEAE: Abdominal pain,"5:2, 300 mg (N=6), G3",0 N (%)
same,TEAE: Anemia,"5:2, 300 mg (N=6), G3",1 (17) N (%)
same,TEAE: Aspartate aminotransferase increased,"5:2, 300 mg (N=6), G3",0 N (%)
same,TEAE: Back pain,"5:2, 300 mg (N=6), G3",1 (17) N (%)
same,TEAE: Bile duct stenosis,"5:2, 300 mg (N=6), G3",1 (17) N (%)
same,TEAE: Blood alkaline phosphatase increased,"5:2, 300 mg (N=6), G3",0 N (%)
same,TEAE: Decreased appetite,"5:2, 300 mg (N=6), G3",1 (17) N (%)
same,TEAE: Dehydration,"5:2, 300 mg (N=6), G3",0 N (%)
same,TEAE: Dysphagia,"5:2, 300 mg (N=6), G3",0 N (%)
same,TEAE: ECG QT prolonged,"5:2, 300 mg (N=6), G3",0 N (%)
same,TEAE: Enterococcal bacteremia,"5:2, 300 mg (N=6), G3",1 (17) N (%)
same,TEAE: Esophagitis,"5:2, 300 mg (N=6), G3",0 N (%)
same,TEAE: Esophagoscopy,"5:2, 300 mg (N=6), G3",0 N (%)
same,TEAE: Eye pain,"5:2, 300 mg (N=6), G3",0 N (%)
same,TEAE: Fatigue,"5:2, 300 mg (N=6), G3",0 N (%)
same,TEAE: Gastritis,"5:2, 300 mg (N=6), G3",0 N (%)
same,TEAE: Hypomagnesaemia,"5:2, 300 mg (N=6), G3",0 N (%)
same,TEAE: Myalgia,"5:2, 300 mg (N=6), G3",0 N (%)
same,TEAE: Nausea,"5:2, 300 mg (N=6), G3",1 (17) N (%)
same,TEAE: Neutrophil count decreased,"5:2, 300 mg (N=6), G3",0 N (%)
same,TEAE: Oropharyngeal pain,"5:2, 300 mg (N=6), G3",0 N (%)
same,TEAE: Pain in extremity,"5:2, 300 mg (N=6), G3",0 N (%)
same,TEAE: Paresthesia,"5:2, 300 mg (N=6), G3",0 N (%)
same,TEAE: Platelet count decreased,"5:2, 300 mg (N=6), G3",0 N (%)
same,TEAE: Pneumonitis,"5:2, 300 mg (N=6), G3",0 N (%)
same,TEAE: Pneumothorax,"5:2, 300 mg (N=6), G3",1 (17) N (%)
same,TEAE: Vomiting,"5:2, 300 mg (N=6), G3",0 N (%)
same,TEAE: Fatigue,"5:2 cohort, 300 mg",67%
same,TEAE: Nausea,"5:2 cohort, 300 mg",83%
same,TEAE: Vomiting,"5:2 cohort, 300 mg",50%
same,TEAE: decreased platelet count,"5:2 cohort, 300 mg",67%
same,TEAE: Anemia,[1],8 (40) n (%)
same,TEAE: Back pain,[1],4 (20) n (%)
same,TEAE: Cough,[1],4 (20) n (%)
same,TEAE: Decreased appetite,[1],7 (35) n (%)
same,TEAE: Diarrhea,[1],5 (25) n (%)
same,TEAE: Dyspnea,[1],3 (15) n (%)
same,TEAE: ECG QT prolonged,[1],4 (20) n (%)
same,TEAE: Fatigue,[1],8 (40) n (%)
same,TEAE: Headache,[1],3 (15) n (%)
same,TEAE: Hypokalaemia,[1],3 (15) n (%)
same,TEAE: Muscular weakness,[1],4 (20) n (%)
same,TEAE: Nasal congestion,[1],3 (15) n (%)
same,TEAE: Platelet count decreased,[1],6 (30) n (%)
same,TEAE: Proteinuria,[1],3 (15) n (%)
same,TEAE: Pyrexia,[1],4 (20) n (%)
same,TEAE: Vomiting,[1],6 (30) n (%)
same,TEAE: Weight decreased,[1],3 (15) n (%)
same,TEAE: Anemia,"All 4:3 Patients (n = 20), G1",1 (5) n (%)
same,TEAE: Back pain,"All 4:3 Patients (n = 20), G1",3 (15) n (%)
same,TEAE: Cough,"All 4:3 Patients (n = 20), G1",3 (15) n (%)
same,TEAE: Decreased appetite,"All 4:3 Patients (n = 20), G1",4 (20) n (%)
same,TEAE: Diarrhea,"All 4:3 Patients (n = 20), G1",5 (25) n (%)
same,TEAE: Dyspnea,"All 4:3 Patients (n = 20), G1",3 (15) n (%)
same,TEAE: ECG QT prolonged,"All 4:3 Patients (n = 20), G1",1 (5) n (%)
same,TEAE: Fatigue,"All 4:3 Patients (n = 20), G1",3 (15) n (%)
same,TEAE: Headache,"All 4:3 Patients (n = 20), G1",3 (15) n (%)
same,TEAE: Hypokalaemia,"All 4:3 Patients (n = 20), G1",1 (5) n (%)
same,TEAE: Muscular weakness,"All 4:3 Patients (n = 20), G1",1 (5) n (%)
same,TEAE: Nasal congestion,"All 4:3 Patients (n = 20), G1",3 (15) n (%)
same,TEAE: Nausea,"All 4:3 Patients (n = 20), G1",9 (45) n (%)
same,TEAE: Platelet count decreased,"All 4:3 Patients (n = 20), G1",4 (20) n (%)
same,TEAE: Proteinuria,"All 4:3 Patients (n = 20), G1",0 n (%)
same,TEAE: Pyrexia,"All 4:3 Patients (n = 20), G1",3 (15) n (%)
same,TEAE: Vomiting,"All 4:3 Patients (n = 20), G1",5 (25) n (%)
same,TEAE: Weight decreased,"All 4:3 Patients (n = 20), G1",2 (10) n (%)
same,TEAE: Anemia,"All 4:3 Patients (n = 20), G2",2 (10) n (%)
same,TEAE: Back pain,"All 4:3 Patients (n = 20), G2",0 n (%)
same,TEAE: Cough,"All 4:3 Patients (n = 20), G2",1 (5) n (%)
same,TEAE: Decreased appetite,"All 4:3 Patients (n = 20), G2",3 (15) n (%)
same,TEAE: Diarrhea,"All 4:3 Patients (n = 20), G2",0 n (%)
same,TEAE: Dyspnea,"All 4:3 Patients (n = 20), G2",0 n (%)
same,TEAE: ECG QT prolonged,"All 4:3 Patients (n = 20), G2",0 n (%)
same,TEAE: Fatigue,"All 4:3 Patients (n = 20), G2",2 (10) n (%)
same,TEAE: Headache,"All 4:3 Patients (n = 20), G2",0 n (%)
same,TEAE: Hypokalaemia,"All 4:3 Patients (n = 20), G2",2 (10) n (%)
same,TEAE: Muscular weakness,"All 4:3 Patients (n = 20), G2",2 (10) n (%)
same,TEAE: Nasal congestion,"All 4:3 Patients (n = 20), G2",0 n (%)
same,TEAE: Nausea,"All 4:3 Patients (n = 20), G2",4 (20) n (%)
same,TEAE: Platelet count decreased,"All 4:3 Patients (n = 20), G2",2 (10) n (%)
same,TEAE: Proteinuria,"All 4:3 Patients (n = 20), G2",3 (15) n (%)
same,TEAE: Pyrexia,"All 4:3 Patients (n = 20), G2",0 n (%)
same,TEAE: Vomiting,"All 4:3 Patients (n = 20), G2",1 (5) n (%)
same,TEAE: Weight decreased,"All 4:3 Patients (n = 20), G2",1 (5) n (%)
same,TEAE: Anemia,"All 4:3 Patients (n = 20), G3",5 (25) n (%)
same,TEAE: Back pain,"All 4:3 Patients (n = 20), G3",1 (5) n (%)
same,TEAE: Cough,"All 4:3 Patients (n = 20), G3",0 n (%)
same,TEAE: Decreased appetite,"All 4:3 Patients (n = 20), G3",0 n (%)
same,TEAE: Diarrhea,"All 4:3 Patients (n = 20), G3",0 n (%)
same,TEAE: Dyspnea,"All 4:3 Patients (n = 20), G3",0 n (%)
same,TEAE: ECG QT prolonged,"All 4:3 Patients (n = 20), G3",3 (15) n (%)
same,TEAE: Fatigue,"All 4:3 Patients (n = 20), G3",3 (15) n (%)
same,TEAE: Headache,"All 4:3 Patients (n = 20), G3",0 n (%)
same,TEAE: Hypokalaemia,"All 4:3 Patients (n = 20), G3",0 n (%)
same,TEAE: Muscular weakness,"All 4:3 Patients (n = 20), G3",1 (5) n (%)
same,TEAE: Nasal congestion,"All 4:3 Patients (n = 20), G3",0 n (%)
same,TEAE: Nausea,"All 4:3 Patients (n = 20), G3",0 n (%)
same,TEAE: Platelet count decreased,"All 4:3 Patients (n = 20), G3",0 n (%)
same,TEAE: Proteinuria,"All 4:3 Patients (n = 20), G3",0 n (%)
same,TEAE: Pyrexia,"All 4:3 Patients (n = 20), G3",1 (5) n (%)
same,TEAE: Vomiting,"All 4:3 Patients (n = 20), G3",0 n (%)
same,TEAE: Weight decreased,"All 4:3 Patients (n = 20), G3",0 n (%)
same,TEAE: Abdominal pain,[2],2 (25) N (%)
same,TEAE: Anemia,[2],2 (25) N (%)
same,TEAE: Constipation,[2],6 (75) N (%)
same,TEAE: Decreased appetite,[2],2 (25) N (%)
same,TEAE: Diarrhea,[2],3 (38) N (%)
same,TEAE: Dyspepsia,[2],2 (25) N (%)
same,TEAE: ECG QT prolonged,[2],2 (25) N (%)
same,TEAE: Fatigue,[2],4 (50) N (%)
same,TEAE: Headache,[2],3 (38) N (%)
same,TEAE: Nausea,[2],6 (75) N (%)
same,TEAE: Pain,[2],2 (25) N (%)
same,TEAE: Platelet count decreased,[2],4 (50) N (%)
same,TEAE: Abdominal pain,[3],1 (13) N (%)
same,TEAE: Anemia,[3],0 N (%)
same,TEAE: Constipation,[3],3 (38) N (%)
same,TEAE: Decreased appetite,[3],1 (13) N (%)
same,TEAE: Diarrhea,[3],3 (38) N (%)
same,TEAE: Dyspepsia,[3],1 (13) N (%)
same,TEAE: ECG QT prolonged,[3],1 (13) N (%)
same,TEAE: Fatigue,[3],1 (13) N (%)
same,TEAE: Headache,[3],3 (38) N (%)
same,TEAE: Nausea,[3],4 (50) N (%)
same,TEAE: Pain,[3],1 (13) N (%)
same,TEAE: Platelet count decreased,[3],1 (13) N (%)
same,TEAE: Abdominal pain,[4],1 (13) N (%)
same,TEAE: Anemia,[4],2 (25) N (%)
same,TEAE: Constipation,[4],3 (38) N (%)
same,TEAE: Decreased appetite,[4],0 N (%)
same,TEAE: Diarrhea,[4],0 N (%)
same,TEAE: Dyspepsia,[4],1 (13) N (%)
same,TEAE: ECG QT prolonged,[4],1 (13) N (%)
same,TEAE: Fatigue,[4],2 (25) N (%)
same,TEAE: Headache,[4],0 N (%)
same,TEAE: Nausea,[4],2 (25) N (%)
same,TEAE: Pain,[4],1 (13) N (%)
same,TEAE: Platelet count decreased,[4],1 (13) N (%)
same,TEAE: Abdominal pain,[5],0 N (%)
same,TEAE: Anemia,[5],0 N (%)
same,TEAE: Constipation,[5],0 N (%)
same,TEAE: Decreased appetite,[5],1 (13) N (%)
same,TEAE: Diarrhea,[5],0 N (%)
same,TEAE: Dyspepsia,[5],0 N (%)
same,TEAE: ECG QT prolonged,[5],0 N (%)
same,TEAE: Fatigue,[5],1 (13) N (%)
